{"source": "ChEMBL document CHEMBL1649287", "about": "“Postantibiotic effect of ceftaroline against gram-positive organisms” (2009)", "assay_type_in_all_cases": "functional", "key": {"[1]": {"system": "Staphylococcus aureus", "assay": "Antimicrobial activity against methicillin-susceptible, vancomycin-susceptible Staphylococcus aureus ATCC 29213 by microdilution method"}, "[2]": {"system": "Enterococcus faecalis", "assay": "Antimicrobial activity against vancomycin-sensitive Enterococcus faecalis 20 assessed as time required to induce post antibiotic sub-MIC effect at 0.2 times MIC after 1 hr by plate counting method", "details": "Enterococcus faecalis, 20, 1 h"}, "[3]": {"system": "Enterococcus faecalis", "assay": "Antimicrobial activity against vancomycin-sensitive Enterococcus faecalis ATCC 29212 assessed as time required to induce post antibiotic sub-MIC effect at 0.2 times MIC after 1 hr by plate counting method", "details": "ATCC 29212, 1 h"}, "[4]": {"system": "Staphylococcus aureus", "assay": "Antimicrobial activity against methicillin-resistant, vancomycin-resistant Staphylococcus aureus 770 assessed as time required to induce sub-MIC effect at 0.4 times MIC after 1 hr by plate counting method", "details": "Staphylococcus aureus, 770, 1 h"}, "[5]": {"system": "Streptococcus pneumoniae", "assay": "Antimicrobial activity against Penicillin-intermediate Streptococcus pneumoniae s1234 assessed as time required to induce post antibiotic sub-MIC effect at 0.3 times MIC after 1 hr by plate counting method", "details": "s1234, 1 h"}, "[6]": {"system": "Enterococcus faecalis", "assay": "Antimicrobial activity against vancomycin-sensitive Enterococcus faecalis 10 assessed as time required to induce post antibiotic sub-MIC effect at 0.2 times MIC after 1 hr by plate counting method", "details": "Enterococcus faecalis, 10, 1 h"}, "[7]": {"system": "Streptococcus pneumoniae", "assay": "Antimicrobial activity against Penicillin-susceptible Streptococcus pneumoniae ATCC 49617 by microdilution method"}, "[8]": {"system": "Staphylococcus aureus", "assay": "Antimicrobial activity against methicillin-susceptible, vancomycin-susceptible Staphylococcus aureus sox1 assessed as time required to induce sub-MIC effect at 0.4 times MIC after 1 hr by plate counting method", "details": "sox1, 1 h"}, "[9]": {"system": "Enterococcus faecalis", "assay": "Antimicrobial activity against vancomycin-sensitive Enterococcus faecalis 10 assessed as time required to induce post antibiotic sub-MIC effect at 0.3 times MIC after 1 hr by plate counting method", "details": "Enterococcus faecalis, 10, 1 h"}, "[10]": {"system": "Enterococcus faecalis", "assay": "Antimicrobial activity against vancomycin-resistant Enterococcus faecalis 609 assessed as time required to induce post antibiotic sub-MIC effect at 0.4 times MIC after 1 hr by plate counting method", "details": "Enterococcus faecalis, 609, 1 h"}, "[11]": {"system": "Enterococcus faecalis", "assay": "Antimicrobial activity against vancomycin-sensitive Enterococcus faecalis ATCC 29212 assessed as time required to induce sub-MIC effect at 0.4 times MIC after 1 hr by plate counting method", "details": "ATCC 29212, 1 h"}, "[12]": {"system": "Streptococcus pneumoniae", "assay": "Antimicrobial activity against Penicillin-intermediate Streptococcus pneumoniae s1234 assessed as time required to induce post antibiotic sub-MIC effect at 0.4 times MIC after 1 hr by plate counting method", "details": "s1234, 1 h"}, "[13]": {"system": "Staphylococcus aureus", "assay": "Antimicrobial activity against methicillin-resistant, vancomycin-hetroresistant Staphylococcus aureus 618 assessed as time required to induce post antibiotic sub-MIC effect at 0.2 times MIC after 1 hr by plate counting method", "details": "Staphylococcus aureus, 618, 1 h"}, "[14]": {"system": "Enterococcus faecalis", "assay": "Antimicrobial activity against vancomycin-resistant Enterococcus faecalis 266 assessed as time required to induce sub-MIC effect at 0.4 times MIC after 1 hr by plate counting method", "details": "Enterococcus faecalis, 266, 1 h"}, "[15]": {"system": "Staphylococcus aureus", "assay": "Antimicrobial activity against methicillin-resistant, vancomycin-susceptible Staphylococcus aureus vs1 assessed as time required to induce sub-MIC effect at 0.4 times MIC after 1 hr by plate counting method", "details": "vs1, 1 h"}, "[16]": {"system": "Streptococcus pneumoniae", "assay": "Antimicrobial activity against Penicillin-susceptible Streptococcus pneumoniae s502 assessed as time required to induce post antibiotic sub-MIC effect at 0.2 times MIC after 1 hr by plate counting method", "details": "s502, 1 h"}, "[17]": {"system": "Staphylococcus aureus", "assay": "Antimicrobial activity against methicillin-resistant, vancomycin-resistant Staphylococcus aureus 770 assessed as time required to induce post antibiotic sub-MIC effect at 0.3 times MIC after 1 hr by plate counting method", "details": "Staphylococcus aureus, 770, 1 h"}, "[18]": {"system": "Staphylococcus aureus", "assay": "Antimicrobial activity against methicillin-susceptible, vancomycin-susceptible Staphylococcus aureus sox1 assessed as post antibiotic effect at 10 times MIC after 1 hr by plate counting method", "details": "sox1, 1 h"}, "[19]": {"system": "Enterococcus faecalis", "assay": "Antimicrobial activity against vancomycin-resistant Enterococcus faecalis 266 assessed as time required to induce post antibiotic sub-MIC effect at 0.4 times MIC after 1 hr by plate counting method", "details": "Enterococcus faecalis, 266, 1 h"}, "[20]": {"system": "Staphylococcus aureus", "assay": "Antimicrobial activity against methicillin-resistant, vancomycin-hetroresistant Staphylococcus aureus 618 by microdilution method"}, "[21]": {"system": "Streptococcus pneumoniae", "assay": "Antimicrobial activity against Penicillin-intermediate Streptococcus pneumoniae s1234 assessed as time required to induce sub-MIC effect at 0.3 times MIC after 1 hr by plate counting method"}, "[22]": {"system": "Staphylococcus aureus", "assay": "Antimicrobial activity against methicillin-susceptible, vancomycin-susceptible Staphylococcus aureus sox1 assessed as time required to induce post antibiotic sub-MIC effect at 0.2 times MIC after 1 hr by plate counting method", "details": "sox1, 1 h"}, "[23]": {"system": "Enterococcus faecalis", "assay": "Antimicrobial activity against vancomycin-sensitive Enterococcus faecalis ATCC 29212 assessed as time required to induce post antibiotic sub-MIC effect at 0.4 times MIC after 1 hr by plate counting method", "details": "ATCC 29212, 1 h"}, "[24]": {"system": "Streptococcus pneumoniae", "assay": "Antimicrobial activity against Penicillin-intermediate Streptococcus pneumoniae s1234 assessed as post antibiotic effect at 10 times MIC after 1 hr by plate counting method", "details": "s1234, 1 h"}, "[25]": {"system": "Staphylococcus aureus", "assay": "Antimicrobial activity against methicillin-resistant, vancomycin-susceptible Staphylococcus aureus vs1 assessed as time required to induce post antibiotic sub-MIC effect at 0.4 times MIC after 1 hr by plate counting method", "details": "vs1, 1 h"}, "[26]": {"system": "Streptococcus pneumoniae", "assay": "Antimicrobial activity against Penicillin-, erythromycin-resistant Streptococcus pneumoniae 37 assessed as time required to induce sub-MIC effect at 0.3 times MIC after 1 hr by plate counting method", "details": "Streptococcus pneumoniae, 37, 1 h"}, "[27]": {"system": "Enterococcus faecalis", "assay": "Antimicrobial activity against vancomycin-sensitive Enterococcus faecalis 10 assessed as time required to induce sub-MIC effect at 0.4 times MIC after 1 hr by plate counting method", "details": "Enterococcus faecalis, 10, 1 h"}, "[28]": {"system": "Streptococcus pneumoniae", "assay": "Antimicrobial activity against Penicillin-susceptible Streptococcus pneumoniae s502 by microdilution method"}, "[29]": {"system": "Staphylococcus aureus", "assay": "Antimicrobial activity against methicillin-resistant, vancomycin-intermediate Staphylococcus aureus 510 assessed as time required to induce post antibiotic sub-MIC effect at 0.4 times MIC after 1 hr by plate counting method", "details": "Staphylococcus aureus, 510, 1 h"}, "[30]": {"system": "Staphylococcus aureus", "assay": "Antimicrobial activity against methicillin-susceptible, vancomycin-susceptible Staphylococcus aureus ATCC 29213 assessed as time required to induce sub-MIC effect at 0.4 times MIC after 1 hr by plate counting method", "details": "ATCC 29213, 1 h"}, "[31]": {"system": "Staphylococcus aureus", "assay": "Antimicrobial activity against methicillin-resistant, vancomycin-resistant Staphylococcus aureus 770 assessed as time required to induce post antibiotic sub-MIC effect at 0.4 times MIC after 1 hr by plate counting method", "details": "Staphylococcus aureus, 770, 1 h"}, "[32]": {"system": "Streptococcus pneumoniae", "assay": "Antimicrobial activity against Penicillin-, erythromycin-resistant Streptococcus pneumoniae 37 assessed as post antibiotic effect at 10 times MIC after 1 hr by plate counting method", "details": "Streptococcus pneumoniae, 37, 1 h"}, "[33]": {"system": "Streptococcus pneumoniae", "assay": "Antimicrobial activity against Penicillin-susceptible Streptococcus pneumoniae s502 assessed as time required to induce sub-MIC effect at 0.4 times MIC after 1 hr by plate counting method", "details": "s502, 1 h"}, "[34]": {"system": "Staphylococcus aureus", "assay": "Antimicrobial activity against methicillin-susceptible, vancomycin-susceptible Staphylococcus aureus ATCC 29213 assessed as post antibiotic effect at 10 times MIC after 1 hr by plate counting method", "details": "ATCC 29213, 1 h"}, "[35]": {"system": "Streptococcus pneumoniae", "assay": "Antimicrobial activity against Penicillin-susceptible Streptococcus pneumoniae s502 assessed as post antibiotic effect at 10 times MIC after 1 hr by plate counting method", "details": "s502, 1 h"}}, "data": [{"smiles": "CCO/N=C(\\C(=O)N[C@@H]1C(=O)N2C(C(=O)[O-])=C(Sc3nc(-c4cc[n+](C)cc4)cs3)CS[C@H]12)c1nsc(NP(=O)(O)O)n1", "note": "[CEFTAROLINE FOSAMIL]", "values": [{"measurement": "MIC", "setting": "[1]", "result": 0.25, "unit": "µg/mL"}, {"measurement": "PAE", "setting": "[2]", "result": 4.1, "unit": "h"}, {"measurement": "PAE", "setting": "[3]", "result": 7.6, "unit": "h"}, {"measurement": "time", "setting": "[4]", "result": 0.6, "unit": "h"}, {"measurement": "PAE", "setting": "[5]", "result": 1.8, "unit": "h"}, {"measurement": "PAE", "setting": "[6]", "result": 3.2, "unit": "h"}, {"measurement": "MIC", "setting": "[7]", "result": 0.016, "unit": "µg/mL"}, {"measurement": "PAE", "setting": "[8]", "result": 1.6, "unit": "h"}, {"measurement": "PAE", "setting": "[9]", "result": 6.6, "unit": "h"}, {"measurement": "time", "setting": "[10]", "result": 7.9, "unit": "h"}, {"measurement": "PAE", "setting": "[11]", "result": 10, "unit": "h"}, {"measurement": "PAE", "setting": "[12]", "result": 2.5, "unit": "h"}, {"measurement": "time", "setting": "[13]", "result": 2.2, "unit": "h"}, {"measurement": "time", "setting": "[14]", "result": 9.5, "unit": "h"}, {"measurement": "time", "setting": "[15]", "result": 1.2, "unit": "h"}, {"measurement": "PAE", "setting": "[16]", "result": 2.7, "unit": "h"}, {"measurement": "time", "setting": "[17]", "result": 5, "unit": "h"}, {"measurement": "PAE", "setting": "[18]", "result": 0.8, "unit": "h"}, {"measurement": "time", "setting": "[19]", "result": "> 10.3", "unit": "h"}, {"measurement": "MIC", "setting": "[20]", "result": 2, "unit": "µg/mL"}, {"measurement": "PAE", "setting": "[21]", "result": 0, "unit": "h"}, {"measurement": "time", "setting": "[22]", "result": 2.2, "unit": "h"}, {"measurement": "PAE", "setting": "[23]", "result": "> 10.6", "unit": "h"}, {"measurement": "PAE", "setting": "[24]", "result": 0.7, "unit": "h"}, {"measurement": "time", "setting": "[25]", "result": 6.7, "unit": "h"}, {"measurement": "time", "setting": "[26]", "result": 0.5, "unit": "h"}, {"measurement": "time", "setting": "[27]", "result": 1.8, "unit": "h"}, {"measurement": "MIC", "setting": "[28]", "result": 0.008, "unit": "µg/mL"}, {"measurement": "time", "setting": "[29]", "result": "> 10", "unit": "h"}, {"measurement": "PAE", "setting": "[30]", "result": 2.8, "unit": "h"}, {"measurement": "time", "setting": "[31]", "result": 7.1, "unit": "h"}, {"measurement": "PAE", "setting": "[32]", "result": 1.5, "unit": "h"}, {"measurement": "PAE", "setting": "[33]", "result": 2.5, "unit": "h"}, {"measurement": "PAE", "setting": "[34]", "result": 1, "unit": "h"}, {"measurement": "PAE", "setting": "[35]", "result": 1.8, "unit": "h"}]}]}
